From US20110195404A1, “SYSTEMS AND METHODS FOR DETERMINING CALCIUM LEVELS” (priority 2010, published 2011)
Values joined by “and” are separate entries in the source; they are usually repeats but may differ in a detail not shown here. Equal entries are not always repeated.

Tests used:
Lysozyme = target: T1, Lysozyme (Homo sapiens, UniProt P61626); test: Lysozyme inhibition saliva screening (fluorescein-labeled Micrococcus lysodeikticus); assay type: biochemical
T1 sequence (P61626 19-148): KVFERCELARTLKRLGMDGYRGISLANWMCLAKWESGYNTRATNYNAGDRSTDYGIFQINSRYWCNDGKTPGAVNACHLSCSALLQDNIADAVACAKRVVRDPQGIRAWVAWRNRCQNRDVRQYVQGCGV
From the text: The assay measures lysozyme activity on Micrococcus lysodeikticus cell walls, which are labeled to such a degree that the fluorescence is quenched. Lysozyme activity can relieve this quenching; yielding increased fluorescence that is proportional to lysozyme activity.

α-amylase = target: T2, α-amylase (Homo sapiens, UniProt P0DUB6); test: α-Amylase inhibition saliva screening (2-chloro-p-nitrophenol-maltotriose substrate, absorbance 405 nm); assay type: biochemical; details: 37° C.; for α-amylase assay reading (absorbance at 405 nm), single replicate: test compound prepared at 5,000 ppm
T2 sequence (P0DUB6 16-511): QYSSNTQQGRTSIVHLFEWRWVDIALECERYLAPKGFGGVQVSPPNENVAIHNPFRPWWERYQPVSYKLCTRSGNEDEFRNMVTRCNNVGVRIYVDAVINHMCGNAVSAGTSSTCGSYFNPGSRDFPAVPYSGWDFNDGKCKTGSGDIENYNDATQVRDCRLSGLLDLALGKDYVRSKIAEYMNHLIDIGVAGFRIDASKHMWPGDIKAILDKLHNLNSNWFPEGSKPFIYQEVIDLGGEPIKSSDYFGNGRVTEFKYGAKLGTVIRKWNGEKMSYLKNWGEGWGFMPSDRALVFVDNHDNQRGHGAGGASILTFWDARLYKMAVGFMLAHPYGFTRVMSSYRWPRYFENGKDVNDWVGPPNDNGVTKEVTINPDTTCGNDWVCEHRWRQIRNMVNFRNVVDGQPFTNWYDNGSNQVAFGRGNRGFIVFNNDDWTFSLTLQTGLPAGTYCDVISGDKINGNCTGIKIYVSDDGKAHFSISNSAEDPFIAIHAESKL
From the text: Enzymatic activity of α-amylase on the substrate yields 2-chloro-p-nitrophenol, which can be measured spectrophotometrically at 405 nm. The amount of α-amylase activity present in the experimental sample is directly proportional to the increase in absorbance at 405 nm.

Compound | inhibition of Lysozyme (Lysozyme; 100% saliva samples (data not shown)) | Lysozyme Inhibitor Activity (Lysozyme; dilute (3.5%) saliva, FIG. 12) | α-amylase assay reading, Ave (α-amylase; 0 min, 5,000 ppm) | α-amylase assay reading (absorbance at 405 nm), single replicate (α-amylase; 0 min) | α-amylase assay reading (absorbance at 405 nm), single replicate (α-amylase; 5 min) | α-amylase assay reading (absorbance at 405 nm), single replicate (α-amylase; 0 min, sulfate hydrate) | α-amylase assay reading, Ave (α-amylase; 5 min, 5,000 ppm) | α-amylase assay reading (absorbance at 405 nm), single replicate (α-amylase; 5 min, sulfate hydrate) | α-amylase assay reading, Ave (α-amylase; 15 min, 5,000 ppm) | α-amylase assay reading (absorbance at 405 nm), single replicate (α-amylase; 15 min, sulfate hydrate)
CC(=O)O [CDI-047, Acetic acid] | inhibit Lysozyme | Lysozyme Inhibitor Activity |  |  |  |  |  |  |  | 
Aluminum potassium sulfate dodecahydrate [CDI-42] |  |  | 0.92 | 0.80 and 0.90 and 0.84 | 1.80 |  |  |  |  | 
Aluminum sulfate hydrate [CDI-34] |  |  | 0.40 |  |  | 0.40 (2×) and 0.36 and 0.45 | 0.50 | 0.49 and 0.50 (2×) and 0.52 | 0.56 | 0.53 and 0.61 and 0.54 and 0.56
